Reference: patent US9561259B2, “Cyclosporin analogs” (priority 2010, dated 2017)

Experiments:
[1] = Epimerization in MeOH at 50° C. (500 MHz NMR)
Description: The proton attached to the sarcosine center (adjacent to the sulfur atom) appears at ˜δ 5.9 in the R-isomer whilst in the S-isomer it moves downfield to ˜δ6.5.

[2] = test system: Spleen cells from C57BL/6 (responder) and BALB/c (stimulator); assay: Mixed Lymphocyte Reaction (MLR) assay; assay type: cell-based, mice; details: five days, 3H-thymidine incorporation
Protocol: The MLR assay is another means of estimating the immunosuppressive potential of test compounds. Female C57BL/6 and BALB/c mice, 6-8 weeks of age, were obtained from the Frederick Cancer Research and Development Center of the National Cancer Institute (Frederick, Md.). Spleens were harvested aseptically from all mice and single cell suspensions were prepared by disaggregating the cells with frosted glass slides, allowing the debris to settle, and washing the cells twice with complete medium. Complete medium consisted of RPMI 1640 medium containing 25 mM HEPES buffer (HyClone, Logan, Utah) supplemented with 10% heat-inactivated fetal bovine serum (FBS; Atlanta Biologicals, Lawrenceville, Ga.), 100 μg/mL streptomycin, 100 U/mL penicillin G, 0.25 μg/mL amphotericin B (HyClone), 2 mM L-glutamine dipeptide (HyClone), and 2×10^−5 M 2-mercaptoethanol (Sigma). Cells were washed twice and resuspended in complete medium. Cell counts were performed using a Beckman Coulter Z-1 particle counter (Fullerton, Calif.). Cell viability was determined by propidium iodide (PI) staining using an Accuri C6 flow cytometer (Ann Arbor, Mich.).
Spleen cells from C57BL/6 (H-2^b) and BALB/c (H-2^d) were used as responder (R) and stimulator (S) cells, respectively. Cells were plated in triplicate in 96-well flat microtiter plates (Costar, Cambridge, Mass.) such that each well contained 2×10^5 R and 8×10^5 S cells. Cultures were incubated in the absence or presence of various concentrations of Cs A, test compounds, or medium at 37° C. in humidified 5% CO2 for five days, pulsed with ^3H-thymidine (^3H-TdR) for the final 16 hours of incubation, and harvested using a Brandel 96-well cell harvester (Gaithersburg, Md.). Proliferation was measured by counting the radioactivity on filter mats in a Wallac 1450 Microbeta TriLux scintillation counter (Turku, Finland). […] These control cultures were incubated for 3 days under the same conditions as those described for the MLR; lymphoproliferation was determined in the same manner as described above.

| Substance | Epimerization (%) ([1]; time 0 days) | Epimerization (%) ([1]; time 30 days) | IC50 [2] [µM] | Epimerization (%) ([1]; time 35 days) | Epimerization (%) ([1]; time 6 days) |
| --- | --- | --- | --- | --- | --- |
| [(R)-(3-(4-methyl-piperazin-1-yl)-propylthio)-Sar]^3 Cyclosporin A [Example 3] | 0 | 2 | 3.3 | – | – |
| [(R)-(3-ethylisopropylamino-propylthio)-Sar]^3 Cyclosporin A [Example 2] | 0 | – | 2.8 | 0 | – |
| [(R)-(3-morpholin-4-yl-propylthio)-Sar]^3 Cyclosporin A [Example 1] | 0 | 0.2 | 3 | – | 0 |
